Measured values published in patent US20040033982A1, “Viral inhibition by n-docosanol” (priority 2001, published 2004).
“Also recorded” adds a separate entry of the source. Like-named read-outs stand apart in the source and are kept apart here.

What was measured:
Friend virus = Friend virus induced leukemia and viremia in mice; assay type: in vivo, BALB/c mice; conditions: intravenous, day of virus and once daily for the next 3 days
Method: FIG. 12 depicts data showing that n-docosanol inhibits in vivo Friend virus induced leukemia and viremia. Adult BALB/c mice were injected intravenously with 75 spleen focus-forming units of FV. Treated groups were injected intravenously with the indicated doses of n-docosanol or Pluronic vehicle alone on the same day as virus inoculation and once daily for the next 3 days. After 10 days, half of the animals in each group were sacrificed and examined for leukemic foci in their spleens (panel A). The remaining mice were retained 10 more days and bled for viremia determinations (panel B). Viremia was measured using the X-C plaque assay. Briefly, primary fibroblast cultures were derived by digestion of 14-day BALB/c embryos with trypsin and culturing in DMEM plus 10% fetal calf serum. After 72 hours, the cells were transferred into 16-mm dishes (10^5/well), pretreated with 5 μg/ml polybrene and then infected with 75 X-C plaque-forming units of Friend virus stock or dilution of test plasma. After incubation for 7 days, the cultures were irradiated and overlaid with X-C cells (3×10^5/well). Three days later, the cultures were washed, stained, and scored for plaques of multinucleated giant cells. The data presented are geometric means and standard errors of splenic foci or X-C plaque-forming units derived from three animals per group. […]

HSV-2 = test: Fusion of octadecyl rhodamine B chloride-labeled HSV-2 with NC-37 human B cells; assay type: cell-based
Method: NC-37 human B cells were inoculated in the presence of 15 mM n-docosanol, the corresponding concentration of Tetronic 908 (0.1 mM) or without addition. Cells were harvested and R-18-labeled HSV-2 was added to aliquots in the presence of compounds at their original concentration. Following incubation at 37° C. for the times indicated, cells were fixed and fluorescence intensity determined by FACScan.
The HSV envelope was labeled with octadecyl rhodamine B chloride (R-18). NC-37 human B cells were inoculated at 2.5×10^5 cells/ml, 25 ml per flask. Cells were incubated overnight at 37° C. with no addition or in the presence of 15 mM n-docosanol or the corresponding concentration of Tetronic 908. […] Fluorescence intensity was measured by using a fluorescence-activated cell sorter (FACScan; Becton-Dickinson).
Because of the selectivity of the inhibitory effects of n-docosanol for lipid-enveloped fusion-dependent viruses and the absence of viricidal effects, we considered the possibility that n-docosanol may inhibit viral entry by altering target cell membranes to prevent effective fusion of viral particles with target cells. To investigate the effects of n-docosanol on HSV fusion with cellular membranes we conducted fluorescence dequenching assays. […] This relieves fluorescence self-quenching and causes an increase in signal intensity.

Water solubility = assay type: physicochemical
wild-type HSV-2 = test: Plaque formation by wild-type HSV-2 in Vero cells; assay type: cell-based; conditions: FIG. 7, Panel A
Method: FIG. 7 depicts data showing that n-docosanol inhibits acyclovir-resistant HSV-2. Vero cells were cultured in 35-mm wells (6×10^5 cells per well) in medium alone (=none) or in the presence of the indicated concentration of acyclovir, n-docosanol-Pluronic F-68 suspension or control suspension (Pluronic F-68 only). The cultures were inoculated 24 hours later with 150 PFU of either wild-type HSV-2 or an acyclovir-resistant laboratory isolate from the wild-type HSV-2 that was plaque purified and passaged in 20 μg/ml acyclovir 44 hours later, the plates were incubated, fixed, stained, and scored for numbers of plaques. The data presented are means of plaques scored from duplicate cultures. The percent inhibition observed in cultures treated with acyclovir or n-docosanol relative to untreated control cultures is denoted in parentheses.

lipid-enveloped viruses = test: Spectrum of antiviral activity against lipid-enveloped viruses in vitro; assay type: cell-based
HIV-1 = HIV-1 replication in PHA/IL-2-stimulated peripheral blood mononuclear cells (p24 ELISA); assay type: cell-based, human; conditions: 4 days after inoculation
Method: FIG. 13 depicts data showing that n-docosanol inhibits in vitro replication of HIV-1 in cultures of PHA/IL-2-stimulated human peripheral blood mononuclear cells. Human peripheral blood mononuclear cells were cultured in medium containing 1 μg/ml PHA plus 5 units/ml IL-2 alone or also containing 100 μg/ml PFA, the indicated dosage of n-docosanol/Pluronic F68, or the amount of Pluronic F-68 control vehicle contained in the high dose of n-docosanol/Pluronic F-68. After overnight incubation, the cultures were inoculated with HIV-1 at a multiplicity of infection of 1 virion/cell. After 24 hours incubation at 37° C., the cultures were washed and inoculated with fresh medium containing PHA and IL-2, but lacking inhibitor. Replication of HIV-1 was determined 4 days later by quantitation of viral antigens by a p24-specific ELISA for HIV-1.
The initial studies on HIV were conducted in collaboration with a U.S. National Institutes of Health Laboratory and one of several experiments of this type is summarized in FIG. 13. Normal human peripheral blood mononuclear cells were activated with 1 μg/ml PHA plus 5 units/ml of IL-2 in medium alone or in the presence of n-docosanol, Pluronic […] control vehicle, or phosphonformic acid (PFA). The next day, the cultures were inoculated with HIV-1 and examined 4 days later for evidence of viral replication by detection of the p24 viral antigen.

CCCCCCCCCCCCCCCCCCCCCCO [n-docosanol]
development of leukemic foci in spleens (Friend virus; day 10): very clear dose-related inhibitory affect | development of viremia (Friend virus; day 20): very clear dose-related inhibitory affect | inhibition at 15000 µM (HSV-2; Human alphaherpesvirus 2, NC-37, read-out: inhibition of fluorescent response compared to Tetronic control): ≤ 76% | inhibition at 15000 µM (HSV-2; Human alphaherpesvirus 2, NC-37, read-out: inhibition of relative increase in fluorescence intensity compared to cells receiving no treatment): ~50% | water solubility (Water solubility): water-insoluble | inhibition of plaque formation (wild-type HSV-2): inhibit plaque formation by wild type HSV-2 equally | HUMAN VIRUSES shown to be susceptible (lipid-enveloped viruses): Respiratory Syncytial Virus; also recorded: Cytomegalovirus; also recorded: Influenza A; also recorded: HIV-1; also recorded: Herpes Simplex-1 & 2; also recorded: Varicella Zoster Virus; also recorded: Human Herpesvirus-6 | MURINE VIRUSES shown to be susceptible (lipid-enveloped viruses): Cytomegalovirus; also recorded: Friend Leukemic Virus; also recorded: LP-BM5 Virus | inhibitory activity against HIV-1 (p24 viral antigen) (HIV-1): dose-related inhibitory activity; also recorded: comparable to that observed with the very potent antiviral compound, phosphonoformic acid (PFA)
